Patent publication US9353082B2, “Pharmaceutical compounds” (BIAL—PORTELA & CA, S.A., priority 2008, dated 2016)
Structures can show the parent of a compound that is named as a salt.

These molecules were tested against T1, FAAH (Rattus norvegicus, UniProt P97612) (assay: In vitro FAAH activity in rat brain membranes, 3H-AEA substrate, % of control). Conditions: 100 nM test compound, low value = strong inhibitor.
T1 construct: Frozen brains (without cerebellum) from Wistar rats were used; from tissue; host or cells: Wistar rat brain (without cerebellum), washed membrane pellets
T1 sequence (P97612 1-579): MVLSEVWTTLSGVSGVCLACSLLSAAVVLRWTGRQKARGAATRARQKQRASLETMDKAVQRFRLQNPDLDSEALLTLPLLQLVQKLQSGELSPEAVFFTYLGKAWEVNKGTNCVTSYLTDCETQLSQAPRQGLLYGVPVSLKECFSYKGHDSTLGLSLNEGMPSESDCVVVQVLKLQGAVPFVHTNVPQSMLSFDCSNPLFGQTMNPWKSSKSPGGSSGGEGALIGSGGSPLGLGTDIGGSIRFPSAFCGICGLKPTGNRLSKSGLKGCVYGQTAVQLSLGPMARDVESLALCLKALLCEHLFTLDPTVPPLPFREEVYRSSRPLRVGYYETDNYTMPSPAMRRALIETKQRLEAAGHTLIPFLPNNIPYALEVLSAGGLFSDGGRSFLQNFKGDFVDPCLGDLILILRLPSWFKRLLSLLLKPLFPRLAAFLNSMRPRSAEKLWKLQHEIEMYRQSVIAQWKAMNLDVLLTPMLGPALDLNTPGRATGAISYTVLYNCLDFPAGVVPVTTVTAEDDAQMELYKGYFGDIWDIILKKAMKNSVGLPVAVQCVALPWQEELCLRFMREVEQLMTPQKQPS
Format: biochemical, Wistar rats
How it was run: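 Wistar rat brain membranes (5 μg protein) preincubated 15 min at 37 °C with compound at 10 μM or 0.1 μM (0.1% DMSO), then 2 μM AEA including 3H-AEA with 0.1% BSA, Tris pH 7.6, 10 min. 3H-ethanolamine counted after charcoal stop; % of no-compound control after blank subtraction.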

Structure (SMILES) | In Vitro FAAH activity, 100 nM
Cc1ccc(OC2CCN(C(=O)n3cnc(-c4ccc(F)cc4F)n3)CC2)cc1 [Compound 134, (3-(2,4-difluorophenyl)-1H-1,2,4-triazol-1-yl)(4-(p-tolyloxy)piperidin-1-yl)methanone] | 34.5 % of control
O=C(N1CCN(c2ccc(O)cc2)CC1)n1nnc2ccccc21 [Compound 136, (1H-benzo[d][1,2,3]triazol-1-yl)(4-(4-hydroxyphenyl)piperazin-1-yl)methanone] | 0.2 % of control
COc1ccc(OC2CCN(C(=O)n3nnc4ccccc43)CC2)cc1 [Compound 137, (1H-benzo[d][1,2,3]triazol-1-yl)(4-(4-methoxyphenoxy)piperidin-1-yl)methanone] | 0.1 % of control
CN(C)C(=O)n1cnc(-c2ccc(N3CCN(c4ccccc4)CC3)cc2)n1 [Compound 138, N,N-dimethyl-3-(4-(4-phenylpiperazin-1-yl)phenyl)-1H-1,2,4-triazole-1-carboxamide] | 83.8 % of control
CN(C)C(=O)n1cnc(-c2ccc(Oc3ccc(C#N)cc3)cc2)n1 [Compound 140, 3-(4-(4-cyanophenoxy)phenyl)-N,N-dimethyl-1H-1,2,4-triazole-1-carboxamide] | 58.6 % of control
N#Cc1ccc(Oc2ccc(-c3ncn(C(=O)N4CCOCC4)n3)cc2)cc1 [Compound 141, 4-(4-(1-(morpholine-4-carbonyl)-1H-1,2,4-triazol-3-yl)phenoxy)benzonitrile] | 15.9 % of control
O=C(N[C@H]1CN2CCC1CC2)n1nnc2ccccc21 [Compound 142, (R)—N-(quinuclidin-3-yl)-1H-benzo[d][1,2,3]triazole-1-carboxamide hydrochloride] | 101.8 % of control
CN(C)C(=O)n1cnc(-c2ccc(Oc3ccc(C(N)=O)cc3)cc2)n1 [Compound 146, 3-(4-(4-carbamoylphenoxy)phenyl)-N,N-dimethyl-1H-1,2,4-triazole-1-carboxamide] | 77.1 % of control
CN(C(=O)n1cnc(-c2ccc(Oc3ccc(C(N)=O)cc3)cc2)n1)c1ccccc1 [Compound 149, 3-(4-(4-carbamoylphenoxy)phenyl)-N-methyl-N-phenyl-1H-1,2,4-triazole-1-carboxamide] | 49.9 % of control
CN(C(=O)n1nnc2ccccc21)[C@H]1CC[C@H](OCc2ccccc2)CC1 [Compound 152, N-((1r,4r)-4-(benzyloxy)cyclohexyl)-N-methyl-1H-benzo[d][1,2,3]triazole-1-carboxamide] | 1.3 % of control
COc1cccc(OCC2CCN(C(=O)n3nnc4ccccc43)CC2)c1 [Compound 153, (1H-benzo[d][1,2,3]triazol-1-yl)(4-((3-methoxyphenoxy)methyl)piperidin-1-yl)methanone] | 0 % of control
O=C(N1CCN(C2CCCC2)CC1)n1nnc2ccccc21 [Compound 154, (1H-benzo[d][1,2,3]triazol-1-yl)(4-cyclopentylpiperazin-1-yl)methanone] | 0.2 % of control
O=C(N1CCC(O)CC1)n1nnc2ccccc21 [Compound 159, (1H-benzo[d][1,2,3]triazol-1-yl)(4-hydroxypiperidin-1-yl)methanone] | 4.8 % of control
CN(C(=O)n1cnc(Cc2ccccc2)n1)c1ccccc1 [Compound 160, 3-benzyl-N-methyl-N-phenyl-1H-1,2,4-triazole-1-carboxamide] | 18.8 % of control
CC1(C)COCN1C(=O)n1cnc(-c2ccccc2)c1 [Compound 161, (4,4-dimethyloxazolidin-3-yl)(4-phenyl-1H-imidazol-1-yl)methanone] | 93.6 % of control
O=C(N1CCC(Oc2ccc(OCc3ccccc3)cc2)CC1)n1nnc2ccccc21 [Compound 164, (1H-benzo[d][1,2,3]triazol-1-yl)(4-(4-(benzyloxy)phenoxy)piperidin-1-yl)methanone] | 0.3 % of control
COc1ccc(OCC2CCN(C(=O)n3nnc4ccccc43)CC2)cc1 [Compound 165, (1H-benzo[d][1,2,3]triazol-1-yl)(4-((4-methoxyphenoxy)methyl)piperidin-1-yl)methanone] | 0 % of control
COc1cccc(OC2CCN(C(=O)n3nnc4ccccc43)CC2)c1 [Compound 166, (1H-benzo[d][1,2,3]triazol-1-yl)(4-(3-methoxyphenoxy)piperidin-1-yl)methanone] | 0 % of control
CCCCOc1ccc(OC2CCN(C(=O)n3nnc4ccccc43)CC2)cc1 [Compound 168, (1H-benzo[d][1,2,3]triazol-1-yl)(4-(4-butoxyphenoxy)piperidin-1-yl)methanone] | 0 % of control

Structure (SMILES) | In Vitro FAAH activity, 100 nM
CON(C)C(=O)n1nnc2ccccc21 [Compound 169, N-methoxy-N-methyl-1H-benzo[d][1,2,3]triazole-1-carboxamide] | 73.6 % of control
O=C(N1CCSC1)n1nnc2ccccc21 [Compound 170, (1H-benzo[d][1,2,3]triazol-1-yl)(thiazolidin-3-yl)methanone] | 2.1 % of control
O=C(N1CCCCCCC1)n1nnc2ccccc21 [Compound 171, azocan-1-yl(1H-benzo[d][1,2,3]triazol-1-yl)methanone] | 15.2 % of control
O=C(N1CCCCCC1)n1nnc2ccccc21 [Compound 172, azepan-1-yl(1H-benzo[d][1,2,3]triazol-1-yl)methanone] | 0.3 % of control
C[C@@H]1CCC[C@H](C)N1C(=O)n1nnc2ccccc21 [Compound 173, (1H-benzo[d][1,2,3]triazol-1-yl)((2R,6S)-2,6-dimethylpiperidin-1-yl)methanone] | 70.6 % of control
O=C(N1Cc2ccccc2C1)n1nnc2ccccc21 [Compound 174, (1H-benzo[d][1,2,3]triazol-1-yl)(isoindolin-2-yl)methanone] | 0.7 % of control
CC1CC(C)CN(C(=O)n2nnc3ccccc32)C1 (centres unmarked) [Compound 175, (1H-benzo[d][1,2,3]triazol-1-yl)(3,5-dimethylpiperidin-1-yl)methanone] | 21 % of control
CCOC(=O)C1CCN(C(=O)n2nnc3ccccc32)CC1 [Compound 176, ethyl 1-(1H-benzo[d][1,2,3]triazole-1-carbonyl)piperidine-4-carboxylate] | 0.2 % of control
CCOC(=O)N1CCN(C(=O)n2nnc3ccccc32)CC1 [Compound 177, ethyl 4-(1H-benzo[d][1,2,3]triazole-1-carbonyl)piperazine-1-carboxylate] | 6.9 % of control
CC(=O)N1CCN(C(=O)n2nnc3ccccc32)CC1 [Compound 178, 1-(4-(1H-benzo[d][1,2,3]triazole-1-carbonyl)piperazin-1-yl)ethanone] | 94.5 % of control
NC(=O)C1CCN(C(=O)n2nnc3ccccc32)CC1 [Compound 179, 1-(1H-benzo[d][1,2,3]triazole-1-carbonyl)piperidine-4-carboxamide] | 49 % of control
CN(C(=O)n1cnc(-c2cccs2)n1)c1ccccc1 [Compound 180, N-methyl-N-phenyl-3-(thiophen-2-yl)-1H-1,2,4-triazole-1-carboxamide] | 57.5 % of control
CN(Cc1ccccc1)C(=O)n1cnc(-c2cccs2)n1 [Compound 181, N-benzyl-N-methyl-3-(thiophen-2-yl)-1H-1,2,4-triazole-1-carboxamide] | 0.9 % of control
O=C(N1CCc2ccccc2C1)n1cnc(-c2ccccc2)c1 [Compound 184, (3,4-dihydroisoquinolin-2(1H)-yl)(4-phenyl-1H-imidazol-1-yl)methanone] | 30.2 % of control
O=C(N1CCc2ccccc2C1)n1cnc(-c2ccc(Cl)cc2)n1 [Compound 185, (3-(4-chlorophenyl)-1H-1,2,4-triazol-1-yl)(3,4-dihydroisoquinolin-2(1H)-yl)methanone] | 71.8 % of control
CN(Cc1ccccc1)C(=O)n1cnc(-c2ccc3ccccc3c2)n1 [Compound 190, N-benzyl-N-methyl-3-(naphthalen-2-yl)-1H-1,2,4-triazole-1-carboxamide] | 20.7 % of control
CN(C(=O)n1cnc(-c2cccc3ccccc23)n1)c1ccccc1 [Compound 192, N-methyl-3-(naphthalen-1-yl)-N-phenyl-1H-1,2,4-triazole-1-carboxamide] | 64.6 % of control
C[C@@H]1CN(C(=O)n2nnc3ccccc32)C[C@@H](C)O1 [Compound 193, (1H-benzo[d][1,2,3]triazol-1-yl)((2R,6R)-2,6-dimethylmorpholino)methanone] | 110.2 % of control

Same assay, conditions: 10 uM test compound, low value = strong inhibitor

Structure (SMILES) | In Vitro FAAH activity, 10 uM
CC1(C)COCN1C(=O)n1cnc(-c2ccccc2)c1 [Compound 161, (4,4-dimethyloxazolidin-3-yl)(4-phenyl-1H-imidazol-1-yl)methanone] | 3.3 % of control
